Columns and labels:
Assay type in all cases: in vivo
Adoxophyes honmai = assay: Pesticidal test against Adoxophyes honmai (artificial feed dip); conditions: 144 h, 2-stage larvae, examined after 6 days, 25° C., read-out: pesticidal rate; for pest or weed control at 1 ppm: concentration 1 ppm; for pest or weed control at 10 ppm: concentration 10 ppm
Description: (§1) Pesticidal Test against Adoxophyes honmai A thinly sliced artificial feed was immersed for 30 seconds in a chemical solution in which a test compound had been prepared at a predetermined concentration, and air-dried, and then put into a 7 cm polyethylene cup having a filter paper laid on the bottom thereof, and 2-stage larvae of Adoxophyes honmai were released. They were left to stand in a thermostatic chamber at 25° C., and the numbers of the living pests and the dead pests were examined after 6 days. The test was carried out with five larvae per group in two replicates. Further, the above compound (A) was used as a comparative compound.

Musca domestica = assay: Pesticidal test against Musca domestica (petri dish dry film); conditions: 24 h, concentration 100 ppm, female adults, examined after 1 day, 25° C., read-out: pesticidal rate
Description: Pesticidal Test against Musca domestica
1 ml of an acetone solution in which a test compound had been prepared at a predetermined concentration was added dropwise to a petri dish having a diameter of 9 cm, and air-dried, and then the female adults of Musca domestica were released and the petri dish was capped. They were left to stand in a thermostatic chamber at 25° C., and the numbers of the living pests and the dead pests were examined after 1 day. The test was carried out with five larvae per group in two replicates.

Helicoverpa armigera = assay: Pesticidal test against Helicoverpa armigera (cabbage leaf disk dip); conditions: foliar, 72 h, 2-stage larvae, examined after 3 days, 25° C., read-out: pesticidal rate; for pest or weed control at 1 ppm: concentration 1 ppm
Description: as §1, with “Helicoverpa armigera” for “Adoxophyes honmai”, “cabbage leaf disk” for “thinly sliced artificial feed”, “air-dried. The leaf disk was” for “air-dried, and then”, “6-hole plastic” for “7 cm polyethylene”, “released with one insect being released per hole.” for “released.”, “3” for “6”

Spodoptera litura = assay: Pesticidal test against Spodoptera litura (cabbage leaf dip); conditions: foliar, 144 h, 2-stage larvae, examined after 6 days, 25° C., read-out: pesticidal rate; for pest or weed control at 1 ppm: concentration 1 ppm
In short: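 Cabbage leaf pieces dipped 30 seconds in compound solution at a predetermined concentration and air-dried, then offered to second-stage larvae, five per group in two replicates. Held at 25° C. Living and dead larvae counted after 6 days.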

Plutella xylostella = assay: Pesticidal test against Plutella xylostella (cabbage leaf dip); conditions: foliar, 144 h, 2-stage larvae, examined after 6 days, 25° C., read-out: pesticidal rate; for pest or weed control at 1 ppm: concentration 1 ppm
In short: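 Second-stage larvae (5 per group, two replicates) were released onto air-dried cabbage leaf discs that had been immersed for 30 seconds in compound solution at a set concentration. Mortality was scored after 6 days at 25° C.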

Choristoneura magnanima = assay: Pesticidal test against Choristoneura magnanima (artificial feed dip); conditions: 144 h, 2-stage larvae, examined after 6 days, 25° C., read-out: pesticidal rate; for pest or weed control at 1 ppm: concentration 1 ppm; for pest or weed control at 10 ppm: concentration 10 ppm
Description: as §1, with “Choristoneura magnanima” for “Adoxophyes honmai”

Laodelphax striatellus = assay: Pesticidal test against Laodelphax striatellus (rice seedling spray); conditions: 144 h, concentration 100 ppm, 3-stage larvae, examined after 6 days, 25° C., read-out: pesticidal rate
In short: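 Rice seedlings sprayed with 2.5 ml acetone solution of compound at a predetermined concentration, air-dried, then infested with third-stage Laodelphax striatellus larvae in capped water-containing tubes at 25 °C. Living and dead insects counted after 6 days; ten larvae per group, two replicates.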

Row | SMILES | pest or weed control at 1 ppm (Adoxophyes honmai) [%] | pest or weed control at 100 ppm (Musca domestica) [%] | pest or weed control at 1 ppm (Helicoverpa armigera) [%] | pest or weed control at 1 ppm (Spodoptera litura) [%] | pest or weed control at 1 ppm (Plutella xylostella) [%] | pest or weed control at 1 ppm (Choristoneura magnanima) [%] | pest or weed control at 10 ppm (Adoxophyes honmai) [%] | pest or weed control at 100 ppm (Laodelphax striatellus) [%] | pest or weed control at 10 ppm (Choristoneura magnanima) [%] | pest or weed control at 10 ppm (Helicoverpa armigera; concentration 10 ppm) [%] | pest or weed control at 10 ppm (Spodoptera litura; concentration 10 ppm) [%] | pest or weed control at 10 ppm (Plutella xylostella; concentration 10 ppm) [%]
1 | O=C(Nc1cccc(C(=O)Nc2c(Br)cc(C(F)(C(F)(F)F)C(F)(F)C(F)(F)F)cc2C(F)(F)F)c1)c1cccc(F)c1 (stereo not drawn) [6-348] | ≥ 70 | ≥ 70 | ≥ 70 | ≥ 70 | ≥ 70 | – | – | – | – | – | – | –
2 | O=C(Nc1cccc(C(=O)Nc2c(Br)cc(C(F)(C(F)(F)F)C(F)(F)C(F)(F)F)cc2C(F)(F)F)c1)c1ccc(F)cc1 (stereo not drawn) [6-349] | ≥ 70 | – | ≥ 70 | ≥ 70 | ≥ 70 | ≥ 70 | – | – | – | – | – | –
3 | O=C(Nc1cccc(C(=O)Nc2c(I)cc(C(F)(C(F)(F)F)C(F)(F)C(F)(F)F)cc2C(F)(F)F)c1)c1cccc(F)c1 (stereo not drawn) [6-504] | ≥ 70 | ≥ 70 | ≥ 70 | ≥ 70 | ≥ 70 | – | – | – | – | – | – | –
4 | O=C(Nc1cccc(C(=O)Nc2c(I)cc(C(F)(C(F)(F)F)C(F)(F)C(F)(F)F)cc2C(F)(F)F)c1)c1ccc(F)cc1 (stereo not drawn) [6-505] | ≥ 70 | ≥ 70 | ≥ 70 | ≥ 70 | ≥ 70 | – | – | – | – | – | – | –
5 | N#Cc1cccc(C(=O)Nc2cccc(C(=O)Nc3c(I)cc(C(F)(C(F)(F)F)C(F)(F)C(F)(F)F)cc3C(F)(F)F)c2)c1 (stereo not drawn) [6-522] | ≥ 70 | ≥ 70 | ≥ 70 | ≥ 70 | ≥ 70 | – | – | – | – | – | – | –
6 | N#Cc1ccc(C(=O)Nc2cccc(C(=O)Nc3c(I)cc(C(F)(C(F)(F)F)C(F)(F)C(F)(F)F)cc3C(F)(F)F)c2)cc1 (stereo not drawn) [6-523] | – | ≥ 70 | ≥ 70 | ≥ 70 | ≥ 70 | – | ≥ 70 | – | – | – | – | –
7 | O=C(Nc1c(I)cc(C(F)(C(F)(F)F)C(F)(F)C(F)(F)F)cc1C(F)(F)F)c1cccc(NC(=O)c2c(F)cccc2F)c1 (stereo not drawn) [6-524] | ≥ 70 | ≥ 70 | ≥ 70 | ≥ 70 | ≥ 70 | – | – | – | – | – | – | –
8 | O=C(Nc1cccc(C(=O)Nc2c(Br)cc(C(F)(C(F)(F)F)C(F)(F)C(F)(F)F)cc2Br)c1F)c1ccccc1 (stereo not drawn) [6-1182] | ≥ 70 | – | – | ≥ 70 | ≥ 70 | ≥ 70 | – | ≥ 70 | – | – | – | –
9 | O=C(Nc1cccc(C(=O)Nc2c(I)cc(C(F)(C(F)(F)F)C(F)(F)C(F)(F)F)cc2I)c1F)c1ccc(F)cc1 (stereo not drawn) [6-1341] | ≥ 70 | ≥ 70 | ≥ 70 | ≥ 70 | ≥ 70 | – | – | ≥ 70 | – | – | – | –
10 | N#Cc1ccc(C(=O)Nc2cccc(C(=O)Nc3c(Br)cc(C(F)(C(F)(F)F)C(F)(F)C(F)(F)F)cc3C(F)(F)F)c2F)cc1 (stereo not drawn) [6-1673] | – | ≥ 70 | ≥ 70 | ≥ 70 | ≥ 70 | ≥ 70 | – | ≥ 70 | – | – | – | –
11 | N#Cc1ccc(C(=O)Nc2cccc(C(=O)Nc3c(I)cc(C(F)(C(F)(F)F)C(F)(F)C(F)(F)F)cc3C(F)(F)F)c2F)cc1 (stereo not drawn) [6-1829] | – | ≥ 70 | ≥ 70 | ≥ 70 | ≥ 70 | ≥ 70 | – | ≥ 70 | – | – | – | –
12 | CN(C(=O)c1cccnc1Cl)c1cccc(C(=O)Nc2c(I)cc(C(F)(C(F)(F)F)C(F)(F)C(F)(F)F)cc2I)c1 (stereo not drawn) [7-90] | – | ≥ 70 | ≥ 70 | ≥ 70 | ≥ 70 | ≥ 70 | – | ≥ 70 | – | – | – | –
13 | CN(C(=O)c1cccc(F)c1)c1cccc(C(=O)Nc2c(I)cc(C(F)(C(F)(F)F)C(F)(F)C(F)(F)F)cc2C(F)(F)F)c1 (stereo not drawn) [7-504] | – | ≥ 70 | – | ≥ 70 | ≥ 70 | ≥ 70 | – | – | – | – | – | –
14 | CN(C(=O)c1cccc(C#N)c1)c1cccc(C(=O)Nc2c(I)cc(C(F)(C(F)(F)F)C(F)(F)C(F)(F)F)cc2C(F)(F)F)c1 (stereo not drawn) [7-522] | ≥ 70 | ≥ 70 | ≥ 70 | ≥ 70 | ≥ 70 | – | – | – | – | – | – | –
15 | CN(C(=O)c1ccc(C#N)cc1)c1cccc(C(=O)Nc2c(I)cc(C(F)(C(F)(F)F)C(F)(F)C(F)(F)F)cc2C(F)(F)F)c1 (stereo not drawn) [7-523] | – | – | ≥ 70 | ≥ 70 | ≥ 70 | ≥ 70 | ≥ 70 | – | – | – | – | –
16 | CN(C(=O)c1cccc(C#N)c1)c1cccc(C(=O)Nc2c(Br)cc(C(F)(C(F)(F)F)C(F)(F)F)cc2Br)c1F [7-1124] | – | – | – | ≥ 70 | ≥ 70 | ≥ 70 | ≥ 70 | ≥ 70 | – | – | – | –
17 | CN(C(=O)c1ccccc1)c1cccc(C(=O)Nc2c(I)cc(C(F)(C(F)(F)F)C(F)(F)F)cc2I)c1F [7-1260] | – | – | – | ≥ 70 | ≥ 70 | ≥ 70 | ≥ 70 | ≥ 70 | – | – | – | –
18 | CN(C(=O)c1ccc(C#N)cc1)c1cccc(C(=O)Nc2c(I)cc(C(F)(C(F)(F)F)C(F)(F)F)cc2I)c1F [7-1281] | – | – | – | ≥ 70 | ≥ 70 | ≥ 70 | – | ≥ 70 | – | – | – | –
19 | CN(C(=O)c1ccccc1)c1cccc(C(=O)Nc2c(I)cc(C(F)(C(F)(F)F)C(F)(F)C(F)(F)F)cc2I)c1F (stereo not drawn) [7-1338] | ≥ 70 | ≥ 70 | ≥ 70 | ≥ 70 | ≥ 70 | – | – | ≥ 70 | – | – | – | –
20 | CN(C(=O)c1ccc(C#N)cc1)c1cccc(C(=O)Nc2c(I)cc(C(F)(C(F)(F)F)C(F)(F)C(F)(F)F)cc2I)c1F (stereo not drawn) [7-1359] | – | ≥ 70 | ≥ 70 | ≥ 70 | ≥ 70 | ≥ 70 | – | ≥ 70 | – | – | – | –
21 | CN(C(=O)c1ccc(C#N)cc1F)c1cccc(C(=O)Nc2c(Br)cc(C(F)(C(F)(F)F)C(F)(F)F)cc2C(F)(F)F)c1F [7-1606] | – | – | ≥ 70 | ≥ 70 | ≥ 70 | – | – | ≥ 70 | ≥ 70 | – | – | –
22 | CN(C(=O)c1ccc(C#N)cc1)c1cccc(C(=O)Nc2c(I)cc(C(F)(C(F)(F)F)C(F)(F)C(F)(F)F)cc2C(F)(F)F)c1F (stereo not drawn) [7-1829] | – | ≥ 70 | ≥ 70 | ≥ 70 | ≥ 70 | ≥ 70 | – | ≥ 70 | – | – | – | –
23 | COc1cc(C(F)(C(F)(F)F)C(F)(F)F)cc(C)c1NC(=O)c1cccc(N(C)C(=O)c2ccccc2)c1 [compound (A), reference compound] | – | – | – | – | – | – | ≤ 50 | – | ≤ 50 | ≤ 50 | ≤ 50 | ≤ 50
